Measurements as given in ChEMBL document CHEMBL1667756, “Design, synthesis and antibacterial activity of 3-methylenepyrrolidine formyl hydroxyamino derivatives as novel peptide deformylase inhibitors” (2011).
Converted amounts (≈) assume the structure as drawn.

What was measured:
Format in all cases: functional
[1] = tested on: Staphylococcus aureus; assay: Antibacterial activity against Staphylococcus aureus ATCC 25923 by broth micro dilution technique
[2] = tested on: Staphylococcus aureus; assay: Antibacterial activity against methicillin-susceptible Staphylococcus aureus ATCC 29213 by broth micro dilution technique
[3] = tested on: Staphylococcus aureus; assay: Antibacterial activity against methicillin-resistant Staphylococcus aureus ATCC 43300 by broth micro dilution technique
[4] = tested on: Staphylococcus epidermidis; assay: Antibacterial activity against methicillin-resistant Staphylococcus epidermidis ATCC 12228 by broth micro dilution technique
[5] = tested on: Staphylococcus aureus; assay: Antibacterial activity against methicillin-susceptible Staphylococcus aureus by agar dilution method
[6] = tested on: Staphylococcus aureus; assay: Antibacterial activity against methicillin-resistant Staphylococcus aureus by agar dilution method
[7] = tested on: Staphylococcus epidermidis; assay: Antibacterial activity against methicillin-susceptible Staphylococcus epidermidis by agar dilution method
[8] = tested on: Staphylococcus epidermidis; assay: Antibacterial activity against methicillin-resistant Staphylococcus epidermidis by agar dilution method
[9] = tested on: Streptococcus pneumoniae; assay: Antibacterial activity against penicillin-susceptible Streptococcus pneumoniae by agar dilution method
[10] = tested on: Streptococcus pneumoniae; assay: Antibacterial activity against penicillin-resistant Streptococcus pneumoniae by agar dilution method
[11] = tested on: Haemophilus influenzae; assay: Antibacterial activity against Haemophilus influenzae by agar dilution method
[12] = tested on: Staphylococcus aureus; assay: Antibacterial activity against Staphylococcus aureus OXFORD by broth micro dilution technique
[13] = tested on: Staphylococcus aureus; assay: Antibacterial activity against Staphylococcus aureus WCUH29 by broth micro dilution technique
[14] = tested on: Enterococcus faecalis; assay: Antibacterial activity against Enterococcus faecalis by broth micro dilution technique
[15] = tested on: Enterococcus faecium; assay: Antibacterial activity against Enterococcus faecium X7501 by broth micro dilution technique
[16] = tested on: Haemophilus influenzae; assay: Antibacterial activity against Haemophilus influenzae Q1 by broth micro dilution technique
[17] = tested on: Haemophilus influenzae; assay: Antibacterial activity against Haemophilus influenzae H128 by broth micro dilution technique
[18] = tested on: Haemophilus influenzae; assay: Antibacterial activity against AcrA deficient Haemophilus influenzae H128 by broth micro dilution technique
[19] = tested on: Moraxella catarrhalis; assay: Antibacterial activity against Moraxella catarrhalis 1502 by broth micro dilution technique
[20] = tested on: Streptococcus pneumoniae; assay: Antibacterial activity against Streptococcus pneumoniae 1629 by broth micro dilution technique
[21] = tested on: Streptococcus pneumoniae; assay: Antibacterial activity against Streptococcus pneumoniae N1387 by broth micro dilution technique
[22] = tested on: Streptococcus pneumoniae; assay: Antibacterial activity against Streptococcus pneumoniae ERY2 by broth micro dilution technique
[23] = tested on: Escherichia coli; assay: Antibacterial activity against Escherichia coli by broth micro dilution technique
[24] = tested on: Streptococcus pyogenes; assay: Antibacterial activity against Streptococcus pyogenes 1307006P by broth micro dilution technique
[25] = tested on: Streptococcus pyogenes; assay: Antibacterial activity against Streptococcus pyogenes 1308007P by broth micro dilution technique

Question: How did the MIC [1] turn out when `C=C1C[C@@H](C(=O)Nc2ccc(F)cc2)N(C(=O)[C@H](CC2CCCC2)CN(O)C=O)C1` was run?
Answer: Its MIC is 1 µg/mL (≈ 2.4 µM).

Question: What about the MIC [2] of the same compound?
Answer: The MIC was 2 µg/mL (≈ 4.79 µM).

Question: And the MIC [3]?
Answer: Its MIC is 0.5 µg/mL (≈ 1.2 µM).

Question: And the MIC [4]?
Answer: Its MIC is 1 µg/mL (≈ 2.4 µM).

Question: And the MIC [5]?
Answer: Its MIC is 1 µg/mL (≈ 2.4 µM).

Question: And the MIC [6]?
Answer: The MIC was 0.25 µg/mL (≈ 0.599 µM).

Question: And the MIC [7]?
Answer: The MIC was 0.5 µg/mL (≈ 1.2 µM).

Question: What about the MIC [8] of the same compound?
Answer: Its MIC is 0.25 µg/mL (≈ 0.599 µM).

Question: And the MIC [9]?
Answer: The MIC was 0.25 µg/mL (≈ 0.599 µM).

Question: And the MIC [10]?
Answer: The MIC was 0.25 µg/mL (≈ 0.599 µM).

Question: What about the MIC [11] of the same compound?
Answer: The MIC was 4 µg/mL (≈ 9.58 µM).

Question: What does the source list for `C=C1C[C@@H](C(=O)Nc2ccc(F)cn2)N(C(=O)[C@H](CCCC)CN(O)C=O)C1`?
Answer: MIC [1]: 1 µg/mL (≈ 2.55 µM); MIC [2]: 2 µg/mL (≈ 5.1 µM); MIC [3]: 0.125 µg/mL (≈ 0.319 µM); MIC [4]: 0.5 µg/mL (≈ 1.27 µM); MIC [12]: 4 µg/mL (≈ 10.2 µM); MIC [13]: 0.5 µg/mL (≈ 1.27 µM); MIC [14]: 32 µg/mL (≈ 81.5 µM); MIC [15]: 4 µg/mL (≈ 10.2 µM); MIC [16]: 16 µg/mL (≈ 40.8 µM); MIC [17]: 16 µg/mL (≈ 40.8 µM); MIC [18]: 0.5 µg/mL (≈ 1.27 µM); MIC [19]: 0.25 µg/mL (≈ 0.637 µM); MIC [20]: 16 µg/mL (≈ 40.8 µM); MIC [21]: 4 µg/mL (≈ 10.2 µM); MIC [22]: 8 µg/mL (≈ 20.4 µM); MIC [23]: > 64 µg/mL; MIC [24]: 4 µg/mL (≈ 10.2 µM); MIC [25]: 4 µg/mL (≈ 10.2 µM)

Question: For `C=C1C[C@@H](C(=O)N2CCOCC2)N(C(=O)[C@H](CC2CCCC2)CN(O)C=O)C1`, which MIC [1] is on record?
Answer: Its MIC is 4 µg/mL (≈ 10.2 µM).

Question: What about the MIC [2] of the same compound?
Answer: Its MIC is 8 µg/mL (≈ 20.3 µM).

Question: And the MIC [3]?
Answer: The MIC was 2 µg/mL (≈ 5.08 µM).

Question: What about the MIC [4] of the same compound?
Answer: Its MIC is 4 µg/mL (≈ 10.2 µM).

Question: How did the MIC [1] turn out when `C=C1C[C@@H](C(=O)Nc2ccccc2)N(C(=O)[C@H](CCCC)CN(O)C=O)C1` was run?
Answer: The MIC was 2 µg/mL (≈ 5.36 µM).

Question: And the MIC [2]?
Answer: The MIC was 8 µg/mL (≈ 21.4 µM).

Question: What about the MIC [3] of the same compound?
Answer: The MIC was 1 µg/mL (≈ 2.68 µM).

Question: What about the MIC [4] of the same compound?
Answer: Its MIC is 2 µg/mL (≈ 5.36 µM).

Question: Which results are given for `C=C1C[C@@H](C(=O)NC2CC2)N(C(=O)[C@H](CC2CCCC2)CN(O)C=O)C1`?
Answer: MIC [1]: 4 µg/mL (≈ 11 µM); MIC [2]: 8 µg/mL (≈ 22 µM); MIC [3]: 1 µg/mL (≈ 2.75 µM); MIC [4]: 4 µg/mL (≈ 11 µM); MIC [5]: 2 µg/mL (≈ 5.5 µM); MIC [6]: 0.5 µg/mL (≈ 1.38 µM); MIC [7]: 1 µg/mL (≈ 2.75 µM); MIC [8]: 4 µg/mL (≈ 11 µM); MIC [9]: 1 µg/mL (≈ 2.75 µM); MIC [10]: 1 µg/mL (≈ 2.75 µM); MIC [11]: 4 µg/mL (≈ 11 µM)

Question: Which MIC [4] does the source give for `CC(=O)NC[C@H]1CN(c2ccc(N3CCOCC3)c(F)c2)C(=O)O1` [LINEZOLID] here?
Answer: Its MIC is 0.5 µg/mL (≈ 1.48 µM).

Question: What about the MIC [5] of the same compound?
Answer: Its MIC is 1 µg/mL (≈ 2.96 µM).

Question: And the MIC [6]?
Answer: The MIC was 0.5 µg/mL (≈ 1.48 µM).

Question: What about the MIC [7] of the same compound?
Answer: The MIC was 1 µg/mL (≈ 2.96 µM).

Question: What about the MIC [8] of the same compound?
Answer: Its MIC is 1 µg/mL (≈ 2.96 µM).

Question: How did the MIC [1] turn out when `C=C1C[C@@H](C(=O)Nc2ccc(F)cc2)N(C(=O)[C@H](CCCC)CN(O)C=O)C1` was run?
Answer: The MIC was 1 µg/mL (≈ 2.55 µM).

Question: What about the MIC [2] of the same compound?
Answer: Its MIC is 4 µg/mL (≈ 10.2 µM).

Question: What about the MIC [3] of the same compound?
Answer: The MIC was 0.5 µg/mL (≈ 1.28 µM).

Question: What about the MIC [4] of the same compound?
Answer: Its MIC is 1 µg/mL (≈ 2.55 µM).

Question: Which MIC [9] does the source give for `CN[C@H](CC(C)C)C(=O)N[C@H]1C(=O)N[C@@H](CC(N)=O)C(=O)N[C@H]2C(=O)N[C@H]3C(=O)N[C@H](C(=O)N[C@H](C(=O)O)c4cc(O)cc(O)c4-c4cc3ccc4O)[C@H](O)c3ccc(c(Cl)c3)Oc3cc2cc(c3O[C@@H]2O[C@H](CO)[C@@H](O)[C@H](O)[C@H]2O[C@H]2C[C@](C)(N)[C@H](O)[C@H](C)O2)Oc2ccc(cc2Cl)[C@H]1O` [VANCOMYCIN] here?
Answer: Its MIC is 1 µg/mL (≈ 0.69 µM).

Question: And the MIC [10]?
Answer: Its MIC is 1 µg/mL (≈ 0.69 µM).

Question: Which results are given for `C=C1C[C@@H](C(=O)Nc2ncc(C)s2)N(C(=O)[C@H](CCCC)CN(O)C=O)C1`?
Answer: MIC [1]: 0.5 µg/mL (≈ 1.27 µM); MIC [2]: 1 µg/mL (≈ 2.53 µM); MIC [3]: 0.125 µg/mL (≈ 0.317 µM); MIC [4]: 0.125 µg/mL (≈ 0.317 µM); MIC [5]: 1 µg/mL (≈ 2.53 µM); MIC [6]: 0.5 µg/mL (≈ 1.27 µM); MIC [7]: 1 µg/mL (≈ 2.53 µM); MIC [8]: 2 µg/mL (≈ 5.07 µM); MIC [9]: 0.25 µg/mL (≈ 0.634 µM); MIC [10]: 0.5 µg/mL (≈ 1.27 µM); MIC [11]: 4 µg/mL (≈ 10.1 µM); MIC [12]: 0.5 µg/mL (≈ 1.27 µM); MIC [13]: 0.125 µg/mL (≈ 0.317 µM); MIC [14]: 4 µg/mL (≈ 10.1 µM); MIC [15]: 2 µg/mL (≈ 5.07 µM); MIC [16]: 4 µg/mL (≈ 10.1 µM); MIC [17]: 4 µg/mL (≈ 10.1 µM); MIC [18]: ≤ 0.06 µg/mL; MIC [19]: ≤ 0.06 µg/mL; MIC [20]: 2 µg/mL (≈ 5.07 µM); MIC [21]: 1 µg/mL (≈ 2.53 µM); MIC [22]: 2 µg/mL (≈ 5.07 µM); MIC [23]: 64 µg/mL (≈ 162 µM); MIC [24]: 2 µg/mL (≈ 5.07 µM); MIC [25]: 2 µg/mL (≈ 5.07 µM)

Question: What does the source list for `O=C(O)c1cn(C2CC2)c2cc(N3CCNCC3)c(F)cc2c1=O` [CIPROFLOXACIN]?
Answer: MIC [1]: 0.5 µg/mL (≈ 1.51 µM); MIC [2]: 0.5 µg/mL (≈ 1.51 µM); MIC [3]: 1 µg/mL (≈ 3.02 µM); MIC [4]: 0.25 µg/mL (≈ 0.754 µM); MIC [5]: 1 µg/mL (≈ 3.02 µM); MIC [6]: 1 µg/mL (≈ 3.02 µM); MIC [7]: 0.25 µg/mL (≈ 0.754 µM); MIC [8]: 1 µg/mL (≈ 3.02 µM); MIC [9]: 2 µg/mL (≈ 6.04 µM); MIC [11]: 0.125 µg/mL (≈ 0.377 µM)
